Experiments:
Experiment in all cases: PRE emergent soil treatment, weed control
Format in all cases: in vivo
Conditions in all cases: applied to soil, 250 g/ha
[1] = test system: lambsquarters (Chenopodium album)
Text: (§1) Compound B was applied to soil as a PRE emergent treatment at the rate of 250 g/ha. The broadleaf weed species velvetleaf (Abutilon theophrasti), redroot pigweed (Amaranthus retroflexus) and lambsquarters (Chenopodium album) were all 100% controlled by this treatment.

[2] = test system: redroot pigweed (Amaranthus retroflexus)
Text: as §1

[3] = test system: velvetleaf (Abutilon theophrasti)
Text: as §1

Measured: controlled (weed control)

CC(C)=Nn1c(C(F)(F)F)cc(=O)n(-c2cc(Oc3ccccc3[N+](=O)[O-])c(Cl)cc2F)c1=O [Compound B, 3-[4-hloro-2-fluoro-5-(2-nitrophenoxy)phenyl]-1-[(1-methylethylidene)amino]-6-(trifluoromethyl)-2,4(1H,3H)-pyrimidinedione]
100%: all assays above

— US6617282B2, “Processes for preparing 3-phenyl-2,4(1H, 3H)-pyrimidinediones” (Ishihara Sangyo Kaisha, Ltd., priority 2001, dated 2003)
